Data taken from ChEMBL document CHEMBL1124703, “Analogues of carbamyl aspartate as inhibitors of dihydroorotase: preparation of boronic acid transition-state analogues and a zinc chelator carbamylhomocysteine” (J Med Chem, 1990).
Blank lines part the entries; values can stand above or below the compound they belong to.

Columns and labels:
Conditions in all cases: Cricetulus griseus
[1] = biological target: Multifunctional protein CAD (Homo sapiens) (UniProt P27708); assay: Inhibitory activity against Dihydroorotase (DHO); no reproducible apparent Ki data
Chain of Multifunctional protein CAD (Homo sapiens) (P27708 whole entry): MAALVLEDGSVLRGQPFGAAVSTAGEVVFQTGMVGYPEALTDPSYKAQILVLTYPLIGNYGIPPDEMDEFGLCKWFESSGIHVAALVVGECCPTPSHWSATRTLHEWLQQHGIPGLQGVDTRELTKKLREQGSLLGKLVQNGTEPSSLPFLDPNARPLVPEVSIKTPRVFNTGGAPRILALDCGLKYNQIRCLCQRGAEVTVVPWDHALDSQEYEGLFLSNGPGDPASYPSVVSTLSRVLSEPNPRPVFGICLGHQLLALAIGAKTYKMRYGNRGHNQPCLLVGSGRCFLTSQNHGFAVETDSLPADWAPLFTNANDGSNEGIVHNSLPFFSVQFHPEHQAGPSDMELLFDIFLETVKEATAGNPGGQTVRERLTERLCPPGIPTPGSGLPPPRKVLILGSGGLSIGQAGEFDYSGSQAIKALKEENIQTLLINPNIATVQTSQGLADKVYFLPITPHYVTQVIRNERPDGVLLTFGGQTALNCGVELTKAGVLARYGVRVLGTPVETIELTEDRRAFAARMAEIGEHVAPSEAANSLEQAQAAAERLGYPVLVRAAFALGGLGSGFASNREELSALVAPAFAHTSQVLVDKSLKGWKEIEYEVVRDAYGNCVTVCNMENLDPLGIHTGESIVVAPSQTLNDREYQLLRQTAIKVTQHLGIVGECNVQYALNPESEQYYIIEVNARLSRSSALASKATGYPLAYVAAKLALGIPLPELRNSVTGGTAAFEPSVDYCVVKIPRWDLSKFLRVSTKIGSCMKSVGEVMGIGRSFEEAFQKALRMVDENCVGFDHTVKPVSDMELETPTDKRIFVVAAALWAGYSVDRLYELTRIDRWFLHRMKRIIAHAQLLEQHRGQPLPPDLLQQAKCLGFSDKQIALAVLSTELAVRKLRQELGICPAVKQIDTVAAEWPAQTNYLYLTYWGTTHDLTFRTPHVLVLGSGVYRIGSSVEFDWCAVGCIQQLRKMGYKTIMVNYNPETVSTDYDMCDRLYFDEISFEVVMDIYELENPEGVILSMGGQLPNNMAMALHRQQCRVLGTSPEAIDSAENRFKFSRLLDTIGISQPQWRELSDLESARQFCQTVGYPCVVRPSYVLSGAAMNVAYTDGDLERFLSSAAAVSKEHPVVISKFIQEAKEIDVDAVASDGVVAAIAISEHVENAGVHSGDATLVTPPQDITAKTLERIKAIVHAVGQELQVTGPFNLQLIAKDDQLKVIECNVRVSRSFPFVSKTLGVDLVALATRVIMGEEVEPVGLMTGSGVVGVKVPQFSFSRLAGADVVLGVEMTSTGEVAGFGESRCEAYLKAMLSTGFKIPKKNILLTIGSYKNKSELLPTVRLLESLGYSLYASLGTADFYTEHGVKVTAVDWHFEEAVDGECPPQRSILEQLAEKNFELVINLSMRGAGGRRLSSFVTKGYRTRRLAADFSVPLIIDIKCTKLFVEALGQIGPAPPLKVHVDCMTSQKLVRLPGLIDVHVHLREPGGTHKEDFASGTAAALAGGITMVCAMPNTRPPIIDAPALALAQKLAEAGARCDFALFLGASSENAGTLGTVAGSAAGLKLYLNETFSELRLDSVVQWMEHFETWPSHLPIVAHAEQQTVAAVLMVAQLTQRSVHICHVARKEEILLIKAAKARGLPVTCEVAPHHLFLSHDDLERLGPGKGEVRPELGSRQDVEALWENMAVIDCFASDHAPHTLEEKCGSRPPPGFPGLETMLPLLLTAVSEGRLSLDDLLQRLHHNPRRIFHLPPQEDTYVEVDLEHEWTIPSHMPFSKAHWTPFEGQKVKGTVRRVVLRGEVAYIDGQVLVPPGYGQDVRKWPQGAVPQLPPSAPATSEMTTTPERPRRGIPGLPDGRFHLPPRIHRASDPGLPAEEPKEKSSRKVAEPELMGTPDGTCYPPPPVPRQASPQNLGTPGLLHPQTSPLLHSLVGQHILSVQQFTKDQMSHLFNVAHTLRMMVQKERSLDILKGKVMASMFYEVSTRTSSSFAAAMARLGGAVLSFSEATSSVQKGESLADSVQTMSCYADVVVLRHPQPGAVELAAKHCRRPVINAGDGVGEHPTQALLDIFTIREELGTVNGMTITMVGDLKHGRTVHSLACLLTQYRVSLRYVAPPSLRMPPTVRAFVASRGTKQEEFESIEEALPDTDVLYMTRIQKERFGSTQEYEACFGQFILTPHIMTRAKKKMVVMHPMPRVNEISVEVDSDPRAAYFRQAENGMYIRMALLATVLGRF

[2] = biological target: Multifunctional protein CAD (Homo sapiens) (UniProt P27708); assay: Inhibitory activity against Dihydroorotase (DHO) using CAD protein at concentrations >=6 mM; no inhibition was observed
NC(=O)NC(CCS)C(=O)O = assay: Kinetic constant for the inactivation against Dihydroorotase (DHO) at a concentration of 3 uM
NC(=O)NC(CC(=O)O)C(=O)O = assay: Kinetic constant for the inactivation of Dihydroorotase (DHO) at pH 6.0

inhibition [1]: no reproducible apparent Ki data
Compound: COC(=O)C(CB(O)O)NC(N)=O (centres undefined)

inhibition [2]: No inhibition
Compound: NC(=O)NC(CB(O)O)C(=O)O (centres undefined)

Compound: Multifunctional protein CAD (Homo sapiens), P27708
kinact (NC(=O)NC(CCS)C(=O)O): 460000 min⁻¹
Km (NC(=O)NC(CC(=O)O)C(=O)O): 50 µM
